Data published in ChEMBL document CHEMBL4804286, “3-amino-4-(4-(4 (dimethylcarbamoyl) phenyl)-1,4-diazepan-1-yl) thieno [2,3-b] pyridine-2-carboxamide for use in cancer therapy and formulations comprising the same” (2020).
Values joined by “and” are separate entries in the source; they are usually repeats but may differ in a detail not shown here. Identical values can stand only once. Active and inactive are the calls of the source. No cut-off for these calls is given here.

Columns and labels:
[1] = molecular target: Tyrosine-protein kinase ABL1 (Homo sapiens) (UniProt P00519); assay: Inhibition of non-phosphorylated human ABL1 assessed as percent of control at 2000 nM by KINOMEscan assay relative to control; set-up: scale not given: the % may be the effect or the level left
[2] = molecular target: RAC-gamma serine/threonine-protein kinase (Homo sapiens) (UniProt Q9Y243); assay: Inhibition of human AKT3 assessed as percent of control at 2000 nM by KINOMEscan assay relative to control; set-up: scale not given: the % may be the effect or the level left
[3] = molecular target: Calcium/calmodulin-dependent protein kinase type 1D (Homo sapiens) (UniProt Q8IU85); assay: Inhibition of human CAMK1D assessed as percent of control at 2000 nM by KINOMEscan assay relative to control; set-up: scale not given: the % may be the effect or the level left
[4] = molecular target: Calcium/calmodulin-dependent protein kinase type II subunit alpha (Homo sapiens) (UniProt Q9UQM7); assay: Inhibition of human CAMK2A assessed as percent of control at 2000 nM by KINOMEscan assay relative to control; set-up: scale not given: the % may be the effect or the level left
[5] = tested on: Epidermal growth factor receptor (Homo sapiens), P00533 [G719S]; assay: Inhibition of human EGFR G719S assessed as percent of control at 2000 nM by KINOMEscan assay relative to control; set-up: scale not given: the % may be the effect or the level left
[6] = tested on: Epidermal growth factor receptor (Homo sapiens), P00533 [T790M]; assay: Inhibition of human EGFR T790M mutant assessed as percent of control at 2000 nM by KINOMEscan assay relative to control; set-up: scale not given: the % may be the effect or the level left
[7] = molecular target: Fibroblast growth factor receptor 1 (Homo sapiens) (UniProt P11362); assay: Inhibition of human FGFR1 assessed as percent of control at 2000 nM by KINOMEscan assay relative to control; set-up: scale not given: the % may be the effect or the level left
[8] = molecular target: Fibroblast growth factor receptor 2 (Homo sapiens) (UniProt P21802); assay: Inhibition of human FGFR2 assessed as percent of control at 2000 nM by KINOMEscan assay relative to control; set-up: scale not given: the % may be the effect or the level left
[9] = molecular target: Fibroblast growth factor receptor 4 (Homo sapiens) (UniProt P22455); assay: Inhibition of human FGFR4 assessed as percent of control at 2000 nM by KINOMEscan assay relative to control; set-up: scale not given: the % may be the effect or the level left
[10] = tested on: Receptor-type tyrosine-protein kinase FLT3 (Homo sapiens), P36888 [D835Y]; assay: Inhibition of human FLT3 D835Y mutant assessed as percent of control at 2000 nM by KINOMEscan assay relative to control; set-up: scale not given: the % may be the effect or the level left
[11] = molecular target: Cyclin-G-associated kinase (Homo sapiens) (UniProt O14976); assay: Inhibition of human GAK assessed as percent of control at 2000 nM by KINOMEscan assay relative to control; set-up: scale not given: the % may be the effect or the level left
[12] = molecular target: Mitogen-activated protein kinase kinase kinase kinase 1 (Homo sapiens) (UniProt Q92918); assay: Inhibition of human HPK1 assessed as percent of control at 2000 nM by KINOMEscan assay relative to control; set-up: scale not given: the % may be the effect or the level left
[13] = molecular target: Serine/threonine-protein kinase MAK (Homo sapiens) (UniProt P20794); assay: Inhibition of human MAK assessed as percent of control at 2000 nM by KINOMEscan assay relative to control; set-up: scale not given: the % may be the effect or the level left
[14] = molecular target: Serine/threonine-protein kinase 3 (Homo sapiens) (UniProt Q13188); assay: Inhibition of human MST2 assessed as percent of control at 2000 nM by KINOMEscan assay relative to control; set-up: scale not given: the % may be the effect or the level left
[15] = molecular target: Myosin-IIIb (Homo sapiens) (UniProt Q8WXR4); assay: Inhibition of human MYO3B assessed as percent of control at 2000 nM by KINOMEscan assay relative to control; set-up: scale not given: the % may be the effect or the level left
[16] = molecular target: Serine/threonine-protein kinase PAK 5 (Homo sapiens) (UniProt Q9P286); assay: Inhibition of human PAK7 assessed as percent of control at 2000 nM by KINOMEscan assay relative to control; set-up: scale not given: the % may be the effect or the level left
[17] = tested on: Phosphatidylinositol 4,5-bisphosphate 3-kinase catalytic subunit alpha isoform (Homo sapiens), P42336 [Q546K]; assay: Inhibition of human PIK3CA Q546K mutant assessed as percent of control at 2000 nM by KINOMEscan assay relative to control; set-up: scale not given: the % may be the effect or the level left
[18] = molecular target: Phosphatidylinositol 4,5-bisphosphate 3-kinase catalytic subunit gamma isoform (Homo sapiens) (UniProt P48736); assay: Inhibition of human PIK3CG assessed as percent of control at 2000 nM by KINOMEscan assay relative to control; set-up: scale not given: the % may be the effect or the level left
[19] = molecular target: cAMP-dependent protein kinase catalytic subunit beta (Homo sapiens) (UniProt P22694); assay: Inhibition of human PKAC-beta assessed as percent of control at 2000 nM by KINOMEscan assay relative to control; set-up: scale not given: the % may be the effect or the level left
[20] = molecular target: Serine/threonine-protein kinase PLK3 (Homo sapiens) (UniProt Q9H4B4); assay: Inhibition of human PLK3 assessed as percent of control at 2000 nM by KINOMEscan assay relative to control; set-up: scale not given: the % may be the effect or the level left
[21] = molecular target: Serine/threonine-protein kinase D1 (Homo sapiens) (UniProt Q15139); assay: Inhibition of human PRKD1 assessed as percent of control at 2000 nM by KINOMEscan assay relative to control; set-up: scale not given: the % may be the effect or the level left
[22] = molecular target: Serine/threonine-protein kinase SIK1 (Homo sapiens) (UniProt P57059); assay: Inhibition of human SIK assessed as percent of control at 2000 nM by KINOMEscan assay relative to control; set-up: scale not given: the % may be the effect or the level left
[23] = molecular target: Tyrosine-protein kinase Tec (Homo sapiens) (UniProt P42680); assay: Inhibition of human TEC assessed as percent of control at 2000 nM by KINOMEscan assay relative to control; set-up: scale not given: the % may be the effect or the level left
[24] = molecular target: Testis-specific serine/threonine-protein kinase 1 (Homo sapiens) (UniProt Q9BXA7); assay: Inhibition of human TSSK1B assessed as percent of control at 2000 nM by KINOMEscan assay relative to control; set-up: scale not given: the % may be the effect or the level left
[25] = molecular target: Non-receptor tyrosine-protein kinase TYK2 (Homo sapiens) (UniProt P29597); assay: Inhibition of human TYK2 JH2 pseudokinase domain assessed as percent of control at 2000 nM by KINOMEscan assay relative to control; set-up: scale not given: the % may be the effect or the level left
[26] = molecular target: Serine/threonine-protein kinase ULK2 (Homo sapiens) (UniProt Q8IYT8); assay: Inhibition of human ULK2 assessed as percent of control at 2000 nM by KINOMEscan assay relative to control; set-up: scale not given: the % may be the effect or the level left
[27] = molecular target: Serine/threonine-protein kinase ULK3 (Homo sapiens) (UniProt Q6PHR2); assay: Inhibition of human ULK3 assessed as percent of control at 2000 nM by KINOMEscan assay relative to control; set-up: scale not given: the % may be the effect or the level left
[28] = molecular target: Serine/threonine-protein kinase WNK2 (Homo sapiens) (UniProt Q9Y3S1); assay: Inhibition of human WNK2 assessed as percent of control at 2000 nM by KINOMEscan assay relative to control; set-up: scale not given: the % may be the effect or the level left
[29] = molecular target: Serine/threonine-protein kinase 32A (Homo sapiens) (UniProt Q8WU08); assay: Inhibition of human YANK1 assessed as percent of control at 2000 nM by KINOMEscan assay relative to control; set-up: scale not given: the % may be the effect or the level left
CWR22R = assay: Antitumor activity against human 22Rv1 cells expressing AR-V7 xenografted in male nude mouse assessed as suppression of tumor growth at 50 mg/kg, administered once a day for 40 days; format: functional, organism-based
Myc-CaP = assay: Antitumor activity against murine castration-resistant Myc-CaP cells xenografted in male FVB mouse assessed as suppression of tumor volume in presence of enzalutamide; format: functional

Calcium/calmodulin-dependent protein kinase type II subunit alpha (Homo sapiens), sequence (Q9UQM7 whole entry): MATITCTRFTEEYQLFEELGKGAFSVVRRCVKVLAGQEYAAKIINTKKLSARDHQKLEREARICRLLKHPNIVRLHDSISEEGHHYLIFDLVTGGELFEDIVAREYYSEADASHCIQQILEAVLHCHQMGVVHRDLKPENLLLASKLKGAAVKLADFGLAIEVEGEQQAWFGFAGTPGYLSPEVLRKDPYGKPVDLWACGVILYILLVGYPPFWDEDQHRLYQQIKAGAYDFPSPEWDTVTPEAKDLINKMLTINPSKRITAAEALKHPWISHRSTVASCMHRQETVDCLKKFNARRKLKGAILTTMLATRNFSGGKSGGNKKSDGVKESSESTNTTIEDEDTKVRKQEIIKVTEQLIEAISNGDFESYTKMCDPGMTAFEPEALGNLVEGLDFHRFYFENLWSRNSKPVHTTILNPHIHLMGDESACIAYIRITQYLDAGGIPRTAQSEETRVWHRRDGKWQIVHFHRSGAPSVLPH
Serine/threonine-protein kinase SIK1 (Homo sapiens), sequence (P57059 whole entry): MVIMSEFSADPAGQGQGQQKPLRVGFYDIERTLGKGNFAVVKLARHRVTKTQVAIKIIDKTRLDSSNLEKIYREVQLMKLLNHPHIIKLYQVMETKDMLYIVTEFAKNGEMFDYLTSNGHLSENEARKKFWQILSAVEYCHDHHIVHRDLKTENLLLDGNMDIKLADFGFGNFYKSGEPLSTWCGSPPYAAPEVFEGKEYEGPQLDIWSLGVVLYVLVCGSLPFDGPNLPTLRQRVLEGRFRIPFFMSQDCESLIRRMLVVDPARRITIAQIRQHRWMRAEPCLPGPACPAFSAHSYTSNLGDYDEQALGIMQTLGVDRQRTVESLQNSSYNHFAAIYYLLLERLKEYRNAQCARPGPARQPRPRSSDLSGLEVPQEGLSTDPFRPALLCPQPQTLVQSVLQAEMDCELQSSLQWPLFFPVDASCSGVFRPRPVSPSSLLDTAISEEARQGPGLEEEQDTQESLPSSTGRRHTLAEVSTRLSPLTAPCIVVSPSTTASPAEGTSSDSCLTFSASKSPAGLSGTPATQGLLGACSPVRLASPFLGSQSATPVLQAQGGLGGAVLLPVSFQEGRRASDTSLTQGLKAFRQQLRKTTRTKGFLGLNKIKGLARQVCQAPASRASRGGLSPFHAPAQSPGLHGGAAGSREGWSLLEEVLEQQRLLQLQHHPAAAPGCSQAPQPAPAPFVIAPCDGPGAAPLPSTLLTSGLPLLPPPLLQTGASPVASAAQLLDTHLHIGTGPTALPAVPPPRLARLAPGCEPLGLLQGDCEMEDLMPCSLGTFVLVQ
Serine/threonine-protein kinase D1 (Homo sapiens), sequence (Q15139 whole entry): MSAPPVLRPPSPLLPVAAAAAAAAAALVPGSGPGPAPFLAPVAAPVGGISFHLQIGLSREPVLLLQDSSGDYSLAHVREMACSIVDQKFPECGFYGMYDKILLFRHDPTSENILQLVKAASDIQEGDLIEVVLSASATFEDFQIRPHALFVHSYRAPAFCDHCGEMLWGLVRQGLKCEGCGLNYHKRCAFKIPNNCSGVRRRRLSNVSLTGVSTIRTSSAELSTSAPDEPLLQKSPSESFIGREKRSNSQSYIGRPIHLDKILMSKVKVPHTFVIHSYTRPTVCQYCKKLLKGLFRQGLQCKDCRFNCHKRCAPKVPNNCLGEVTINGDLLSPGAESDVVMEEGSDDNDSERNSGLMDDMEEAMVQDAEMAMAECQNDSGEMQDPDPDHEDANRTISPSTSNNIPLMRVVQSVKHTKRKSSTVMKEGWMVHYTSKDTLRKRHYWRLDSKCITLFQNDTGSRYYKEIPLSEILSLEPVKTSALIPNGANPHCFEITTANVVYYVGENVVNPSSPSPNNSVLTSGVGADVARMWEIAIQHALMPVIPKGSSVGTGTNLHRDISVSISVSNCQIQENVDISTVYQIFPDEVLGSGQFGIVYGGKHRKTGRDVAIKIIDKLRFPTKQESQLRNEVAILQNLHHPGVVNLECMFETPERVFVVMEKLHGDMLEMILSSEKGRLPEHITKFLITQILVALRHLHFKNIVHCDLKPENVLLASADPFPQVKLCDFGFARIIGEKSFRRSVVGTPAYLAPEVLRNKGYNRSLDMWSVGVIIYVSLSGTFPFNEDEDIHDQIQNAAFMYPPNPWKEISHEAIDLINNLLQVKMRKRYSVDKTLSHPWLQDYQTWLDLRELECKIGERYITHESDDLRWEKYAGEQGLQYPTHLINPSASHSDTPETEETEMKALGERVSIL
Serine/threonine-protein kinase ULK2 (Homo sapiens), sequence (Q8IYT8 whole entry): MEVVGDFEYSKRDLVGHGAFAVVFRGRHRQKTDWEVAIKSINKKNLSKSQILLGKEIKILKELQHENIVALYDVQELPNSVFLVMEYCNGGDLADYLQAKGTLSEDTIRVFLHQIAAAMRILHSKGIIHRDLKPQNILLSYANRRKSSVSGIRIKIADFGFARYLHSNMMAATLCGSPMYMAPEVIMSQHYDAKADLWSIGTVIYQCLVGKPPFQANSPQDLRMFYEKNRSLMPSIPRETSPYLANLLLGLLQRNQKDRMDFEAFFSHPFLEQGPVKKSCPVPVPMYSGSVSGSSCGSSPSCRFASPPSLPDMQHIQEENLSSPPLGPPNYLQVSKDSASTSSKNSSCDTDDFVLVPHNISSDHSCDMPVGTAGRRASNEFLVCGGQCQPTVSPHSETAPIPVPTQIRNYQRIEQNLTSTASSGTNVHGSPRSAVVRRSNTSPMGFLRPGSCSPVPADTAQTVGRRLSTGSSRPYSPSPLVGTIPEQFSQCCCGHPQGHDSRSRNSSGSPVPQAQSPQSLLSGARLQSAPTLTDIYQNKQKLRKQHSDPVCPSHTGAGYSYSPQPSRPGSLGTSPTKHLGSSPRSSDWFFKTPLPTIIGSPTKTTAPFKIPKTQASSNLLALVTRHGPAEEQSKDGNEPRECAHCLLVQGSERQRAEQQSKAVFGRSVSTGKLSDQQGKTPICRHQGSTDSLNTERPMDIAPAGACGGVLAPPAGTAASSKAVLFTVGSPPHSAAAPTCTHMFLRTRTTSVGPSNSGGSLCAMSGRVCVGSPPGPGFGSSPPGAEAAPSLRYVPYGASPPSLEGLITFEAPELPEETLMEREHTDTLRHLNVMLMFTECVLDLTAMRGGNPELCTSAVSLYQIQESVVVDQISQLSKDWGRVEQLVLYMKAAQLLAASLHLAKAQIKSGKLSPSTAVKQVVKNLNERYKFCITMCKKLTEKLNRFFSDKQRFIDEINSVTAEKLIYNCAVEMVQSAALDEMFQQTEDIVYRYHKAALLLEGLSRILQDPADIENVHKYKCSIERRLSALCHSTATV
Fibroblast growth factor receptor 4 (Homo sapiens), sequence (P22455 22-802 limits assumed): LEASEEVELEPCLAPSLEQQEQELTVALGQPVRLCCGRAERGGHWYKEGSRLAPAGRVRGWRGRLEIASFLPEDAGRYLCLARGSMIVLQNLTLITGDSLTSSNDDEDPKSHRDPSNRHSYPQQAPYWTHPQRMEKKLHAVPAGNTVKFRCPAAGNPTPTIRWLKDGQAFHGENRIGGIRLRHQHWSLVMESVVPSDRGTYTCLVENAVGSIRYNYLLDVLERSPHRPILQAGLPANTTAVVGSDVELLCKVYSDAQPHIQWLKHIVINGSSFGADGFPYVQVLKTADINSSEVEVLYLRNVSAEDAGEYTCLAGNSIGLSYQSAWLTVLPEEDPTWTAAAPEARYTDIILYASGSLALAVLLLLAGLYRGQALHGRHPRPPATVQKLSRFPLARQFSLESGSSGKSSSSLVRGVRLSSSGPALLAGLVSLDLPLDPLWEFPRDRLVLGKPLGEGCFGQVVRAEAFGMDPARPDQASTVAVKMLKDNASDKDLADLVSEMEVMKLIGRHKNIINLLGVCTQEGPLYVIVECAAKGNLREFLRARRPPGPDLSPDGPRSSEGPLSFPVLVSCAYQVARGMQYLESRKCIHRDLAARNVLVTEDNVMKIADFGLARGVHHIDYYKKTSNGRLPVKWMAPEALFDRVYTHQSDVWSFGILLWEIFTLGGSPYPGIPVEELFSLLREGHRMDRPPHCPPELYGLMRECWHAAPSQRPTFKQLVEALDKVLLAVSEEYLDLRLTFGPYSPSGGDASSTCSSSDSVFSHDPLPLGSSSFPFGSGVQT
Calcium/calmodulin-dependent protein kinase type 1D (Homo sapiens), sequence (Q8IU85 whole entry, looked up): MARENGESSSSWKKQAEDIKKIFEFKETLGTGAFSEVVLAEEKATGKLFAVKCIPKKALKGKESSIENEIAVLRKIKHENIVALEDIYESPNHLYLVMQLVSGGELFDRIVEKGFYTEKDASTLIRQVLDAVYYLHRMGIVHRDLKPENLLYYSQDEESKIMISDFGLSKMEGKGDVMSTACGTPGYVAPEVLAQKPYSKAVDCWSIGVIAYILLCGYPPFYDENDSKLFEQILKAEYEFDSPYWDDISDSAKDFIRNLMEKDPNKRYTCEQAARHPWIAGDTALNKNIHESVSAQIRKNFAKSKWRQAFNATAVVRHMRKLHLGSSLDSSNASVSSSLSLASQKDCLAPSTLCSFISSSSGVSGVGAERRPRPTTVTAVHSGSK
Tyrosine-protein kinase Tec (Homo sapiens), sequence (P42680 whole entry): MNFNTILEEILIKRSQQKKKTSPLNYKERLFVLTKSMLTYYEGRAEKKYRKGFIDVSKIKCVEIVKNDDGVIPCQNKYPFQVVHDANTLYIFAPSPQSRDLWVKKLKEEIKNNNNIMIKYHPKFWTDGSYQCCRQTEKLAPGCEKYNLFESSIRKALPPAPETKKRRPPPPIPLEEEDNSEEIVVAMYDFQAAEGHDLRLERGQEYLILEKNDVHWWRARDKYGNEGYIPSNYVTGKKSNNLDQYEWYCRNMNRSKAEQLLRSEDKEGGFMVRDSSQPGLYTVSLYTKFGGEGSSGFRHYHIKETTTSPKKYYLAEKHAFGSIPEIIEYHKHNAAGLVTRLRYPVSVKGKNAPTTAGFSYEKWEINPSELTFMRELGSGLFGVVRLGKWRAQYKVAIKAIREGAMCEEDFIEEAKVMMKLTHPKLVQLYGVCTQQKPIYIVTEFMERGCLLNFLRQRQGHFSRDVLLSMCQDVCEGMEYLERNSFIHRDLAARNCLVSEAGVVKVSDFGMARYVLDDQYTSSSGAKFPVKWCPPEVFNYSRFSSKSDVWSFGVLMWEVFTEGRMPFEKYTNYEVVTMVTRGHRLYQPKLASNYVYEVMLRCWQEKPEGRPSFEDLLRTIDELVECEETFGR

CN(C)C(=O)c1ccc(N2CCCN(c3ccnc4sc(C(N)=O)c(N)c34)CC2)cc1 was tested, and the Activity [1] was 95% and 78%, the Activity [2] was 97% and 100% and the Activity [3] was 87% and 93%. The Activity [4] was 90% and 100%, the Activity [5] was 100% and the Activity [6] was 98% and 87%. For the same molecule, the Activity [7] was 98% and 92%, the Activity [8] was 99% and 98% and the Activity [9] was 100% and 96%. The Activity [10] was 100%, the Activity ([10]; INHIBITOR) was 46% and the Activity [11] was 88% and 94%. The Activity [12] was 98% and 100%, the Activity [13] was 100% and 91% and the Activity [14] was 100% and 84%. The Activity [15] was 87% and 100%, the Activity [16] was 100% and 80% and the Activity [17] was 66% and 72%. The Activity [18] was 79% and 76%, the Activity [19] was 83% and 100% and the Activity [20] was 86% and 90%. The Activity [21] was 88% and 92%, the Activity [22] was 84% and 79% and the Activity [23] was 91% and 81%. The Activity [24] was 80% and 99%, the Activity [25] was 73% and 59% and the Activity [26] was 90% and 83%. The Activity [27] was 96% and 79%, the Activity [28] was 96% and 94% and the Activity [29] was 89% and 97%. The Activity (CWR22R) was “Active” and the Activity (Myc-CaP) was “Active”.
